Results from patent US8426463B2, “[((1R,2S,5R)-2-isopropyl-5-methyl-cyclohexanecarbonyl)-amino]-acetic acid isopropyl ester and related compounds and their use in therapy” (priority 2011, dated 2013).

How the values were obtained:
[1] = test system: dorsal surface of the tongue; details: 6 subjects; filter paper on dorsal surface of tongue, 30 seconds; cited from earlier work
[2] = test system: philtrum skin (keratinized stratified epithelium); assay: Philtrum assay: duration of cooling on keratinized stratified epithelium; type: in vivo, human; details: applied to the philtrum skin at 5 mg/mL in Aquaphor ointment
Excerpt: Bioassay on Keratinized Stratified Epithelium: Philtrum Assay
The philtrum is the midline groove above the border of the upper lip. The site of drug testing was the skin above the upper lip (above the vermilion border of the lips), on the philtrum, lateral to the philtrum until the nasolabial folds, and sometimes on the lower nostrils (subnasale). This part of the face is known to be densely innervated with cool/cold receptors, second only to the surfaces of the eyeball and anogenitalia. It is also known from the scientific literature that the area around the lips has a high density of “cold spots” (see, e.g., Dhaka et al., “Visualizing cold spots: TRPM8-expressing sensory neurons and their projections”, J. Neuroscience, Vol. 28, pp. 566-575, 2008).
To test for anti-nociceptive activity, the test substance is first dissolved (5 mg/mL) in an ointment (Aquaphor®, which is 41% petrolatum, and the rest mineral oil, ceresin and lanolin alcohol) and singly applied (40 to 70 mg) onto the philtrum skin surface using a plastic stick.
At this locus, cool and cold sensations in the skin may be experienced and rated for time of onset and intensity. The intensity of the subjective skin sensation is rated as 0, 1, 2 or 3 with: 0 as no change; 1 as slight coolness, or cold; 2 as clear-cut signal of coolness or cold; and 3 as robust cooling or cold. The intervals for recording are 5 to 10 minutes, until two successive zeroes are obtained. The onset of drug action is taken as the time to reach 2 units of coolness intensity, and offset of drug action is the time when coolness intensity drops below 2, after previously surpassing 2 units. The duration of cooling action is defined as the offset time minus the onset time.

[3] = test system: ocular surface (non-keratinized stratified epithelium); assay: Ocular surface bioassay: duration of cooling after towelette wipe on closed eyelids; type: in vivo, human; details: for Non-Keratinized Stratified Epithelia (NKSE) Ocular Surface (min), duration of cooling: applied to the closed eyelids using a towellette at 1 mg/mL in 5%-95% v/v ethanol-distilled water; for rank order of duration of action of ocular wipes: six subjects, randomized double-blind study, three trials per wipe
Method: Bioassay on Non-Keratinized Stratified Epithelium: Ocular Surface
For testing on the ocular surface, a towelette containing the test compound was used as the delivery unit. The test compound was dissolved first in absolute ethanol and then distilled water was added to form a standard 1 mg/mL solution in a 3 to 5% by weight ethanol-water solution. Three mL of the test solution was then added to a 0.4 g cotton rectangle (50 mm×60 mm) (CS-being, Daisan Cotton, Japan) and individually sealed with a vacuum apparatus (Foodsaver®, Jarden Corp.). Samples were stored in a freezer or refrigerator and thawed to room temperature before use. Wiping with the cotton pad delivers 40 to 45 μL of liquid composition to the closed eyelids (˜20 to 22 μL per eye surface). Thus, if the concentration of the test compound was 1 mg/mL, the dose delivered to both eyes is a total of ˜40 to 42 μg, or ˜20 μg per eye. The presence or absence of cooling sensations felt on the ocular surface was noted as being present or absent at 5 to 10 minute intervals until no coolness was noticeable in two successive test intervals. Only the duration of cooling on the ocular surface was recorded, without an attempt to quantify the intensity of the sensation.

[4] = test system: oropharyngeal surface (non-keratinized stratified epithelium); assay: Oropharyngeal surface bioassay: ODT followed by chili pepper sauce challenge; type: in vivo, human; parameters: key to Non-Keratinized Stratified Epithelia (NKSE) Oropharyngeal Surface, attenuation of chili pepper sauce irritation: If there was no attenuation of the challenge stimuli, the score was (0); if there was partial inhibition, the score was (+); if there was complete attenuation of the irritant signal, the score was (++); details: for sensation on the oropharyngeal surface / effect on the response to the chili pepper sauce: ODT; for Non-Keratinized Stratified Epithelia (NKSE) Oropharyngeal Surface, attenuation of chili pepper sauce irritation: ODT containing 2.5 to 3 mg of active ingredient, chili pepper sauce 45 minutes later; for effect on the response to the chili pepper sauce: same test conditions
Excerpt: Bioassay on Non-Keratinized Stratified Epithelium: Oropharyngeal Surface
A number of irritants have been evaluated for evoking the cough sensation as a measure of pharygeal sensitivity (see, e.g., Morice et al., 2001, “Cough Challenge in the Assessment of Cough Reflex”, Brit. J. Clin. Pharmacol., Vol. 52, pp. 365-375). Usually, citric acid or capsaicin is delivered via the inhalation route to volunteers and the number of coughs counted. […] The chili pepper sauce mixes with the saliva and the saliva is then deposited on the posterior oropharynx. The chili pepper sauce used was Yank Sing® Chili Pepper Sauce (YS Gourmet Productions, Inc., PO Box 26189, San Francisco, Calif. 94126) and is a well-known condiment for use with dim sum (Chinese tea lunch). The sensations associated with the chili pepper sauce are located in the posterior wall of the mouth and are clearly recognized by the test subject and associated with a desire to clear the throat.
The ODT was formulated by taking an ingredient, dissolving it in absolute ethanol, and then adding 10% by weight of maltitol, and 90% by weight of mannitol, and then an equal volume of distilled water. The mixture was the stirred with a glass rod, and dispensed onto a piece of wax paper with a disposable plastic pipette. The individual dried tablets weighed on average 150 mg each and when on the dorsal surface of the tongue, dissolved completely in saliva and coated the oropharyngeal surface. On average, the amount of the test substance was 2.5 to 3 mg per tablet.
To test for anti-nociceptive activity, the ODT containing the test compound was first administered onto the dorsal surface of the tongue; 45 to 50 minutes later, the chili-pepper sauce challenge is administered. At this time, the coolness sensations from the test compound have dissipated and the test is to determine if an anti-nociceptive effect remains. Results were reported as follow: If there was no attenuation of the challenge stimuli, the score was (0), if there was partial inhibition, the score was (+), and if there was complete attenuation of the irritant signal, the score was (++). In the presence of an ODT containing an active ingredient that results in a (++) score, the irritative signals were completely absent, yet the salty taste used in the soy sauce of the condiment could be readily identified and tasted.
In one formulation (used in the biological evaluation studies described herein), orally disintegrating tablets (ODTs) were prepared using an 80:20 by weight mixture of mannitol-maltitol (Pearlitol™ and Sweetpearl™, Roquette Freres, France). This carrier has the advantage of completely masking bitter tastes that might be present in some of the test compounds. The test compound was first mixed with the mannitol-maltitol using a mortar and pestle, and then suspended in an equal volume of 10:90 v/v ethanol-distilled water. A disposable pipette was then used to aliquot the liquid mixture onto a sheet of wax paper and dried at room temperature. The dried tablets were then weighed and sorted. It was found by experiment that an 80 mg tablet containing 2 to 3 mg of test compound dissolved within 15 seconds when placed on the dorsal surface of the tongue and provided a good test dose.

TA1535 strain = details: MSDS Number 2984; cited from earlier work
allergic conjunctivitis = assay: Study 3: eye wipes in a subject with allergic conjunctivitis; type: in vivo, human
Excerpt: A laboratory scientist suffered from seasonal allergic conjunctivitis. This condition was severely aggravated when […] started doing experiments with laboratory animals (rats and mice) and […] became sensitized to the associated allergens. The conjunctivitis was not relieved by oral or topical eye drops containing antihistamines and the subject was reluctant to consider the use of anti-inflammatory steroid ointments. Upon examination, their eyes were blood-shot and watery and they kept rubbing their eyelids with their fingers even though they knew this action may further aggravate the itch and discomfort. They volunteered to try eye wipes containing 1.0 mg/mL of Gly-O-iPr. The relief of itch and discomfort was obtained within 5 minutes and lasted for at least four hours.

[5] = test system: dry, scratchy throat with cough; assay: Study 4: chewing gum and ODT in a subject with scratchy throat and cough; type: in vivo, human
Excerpt: A person's child moved away from their neighborhood to go to college and they became responsible for taking care of their two cats. Initially everything was all right, but then they became sensitized to the litter box dust generated when they were cleaning after the cats. They developed a dry, scratchy throat with cough, and this was severely aggravated by their seasonal allergy to grass pollen, so that they were constantly clearing their throat. […] After about two weeks of coughing and discomfort, they agreed to try Gly-O-iPr, first spread as 3 mg per wafer of Wrigley spearmint chewing gum, and then later formulated in an orally disintegrating tablet at 3 mg per unit dose. The medicated chewing gum and the ODT both provided relief within five minutes after administration. The sense of discomfort in the throat was attenuated and the effect lasted for about four hours and the dose could be repeated with the same beneficial effect. This individual preferred the ODT method of delivery as they considered this more efficient than chewing gum. After using the ODT containing Gly-O-iPr for ten days on an “as-needed basis” […] cough and scratchy throat disappeared and they are now well.

cough = assay: Study 5: ODT in a smoker with chili pepper induced coughing fit; type: in vivo, human; details: two ODT tablets (2.5 mg each); one subject
Method: A venture capitalist lived a stress-filled life and smoked two packs of cigarettes per day. […] They tried the ODT containing 2.5 mg of Gly-O-iPr and said that it felt great, but they were afraid that if they used it, they would smoke more. Later that evening, they went to a banquet of Northern Chinese cuisine and they started coughing when they ate a piece of fish that was heavily spiced with chili peppers. Everyone at the dinner table was alarmed by their coughing fit which was quite intense and made their face turn bright red.

[6] = test system: pharyngeal and esophageal receptors; assay: Cooling sensations in the chest after Gly-O-iPr with or without icilin; parameters: species or system human; details: in vivo
Excerpt: The cooling sensations in the chest that result from the Gly-O-iPr/icilin combination may provide symptomatic relief of discomfort in the airways (larynx, trachea, bronchi) in conditions such as asthma and COPD.

[7] = test system: Salmonella typhimurium tester strain TA1535; assay: Ames test in TA1535 with and without S9-mix (Notox)
[8] = 3 mg per chewing gum wafer or 3 mg ODT, one subject

Compound	Keratinized Stratified Epithelia Philtrum Skin (min), duration of cooling [2] [min]	Non-Keratinized Stratified Epithelia (NKSE) Ocular Surface (min), duration of cooling [3] [min]	rank order of duration of action of ocular wipes [3]	sensation on the oropharyngeal surface [4]	Non-Keratinized Stratified Epithelia (NKSE) Oropharyngeal Surface, attenuation of chili pepper sauce irritation [4]	effect on the response to the chili pepper sauce [4]	also measured
CC(C)[C@@H]1CC[C@@H](C)C[C@H]1O [(−)-menthol, (1R,2S,5R)-2-isopropyl-5-methyl-cyclohexanol]							average Threshold for cooling on the tongue [1]: 0.25 µg
CCOC(=O)CNC(=O)[C@@H]1C[C@H](C)CC[C@H]1C(C)C [Gly-O-Et, [((1R,2S,5R)-2-isopropyl-5-methyl-cyclohexanecarbonyl)-amino]-acetic acid ethyl ester]	24	15	Gly-O-iPr>>Gly-O-nPr>Gly-O-Et	refreshing cooling sensation	0	not effective	increase in duration of cooling on the ocular surface ([3]; concentration increased from 1 mg/mL to 2 mg/mL): 15 min; increase in duration of cooling on the ocular surface ([3]; concentration increased from 1 mg/mL to 5 mg/mL): 22 min; mutagenicity, Ames test (TA1535 strain): weakly mutagenic
COC(=O)CNC(=O)[C@@H]1C[C@H](C)CC[C@H]1C(C)C [Gly-O-Me, [((1R,2S,5R)-2-isopropyl-5-methyl-cyclohexanecarbonyl)-amino]-acetic acid methyl ester]	10	5			0		
CC(C)OC(=O)CNC(=O)[C@@H]1C[C@H](C)CC[C@H]1C(C)C [Gly-O-iPr, [((1R,2S,5R)-2-isopropyl-5-methyl-cyclohexanecarbonyl)-amino]-acetic acid isopropyl ester]	27	300	Gly-O-iPr>>Gly-O-nPr>Gly-O-Et	refreshing cooling sensation	++	blocked the response to the chili pepper sauce	duration of cooling effect on the ocular surface, on average ([3]; 1 mg/mL): 5 h; duration of cooling on the ocular surface ([3]; test concentration increased to 1.5 mg/mL): about 6.5 hours; time to relief of itch and discomfort (allergic conjunctivitis; eye wipes containing 1.0 mg/mL, one subject): ≤ 5 min; over-all itchiness and redness (allergic conjunctivitis; wipes as needed for three days): reduced significantly; duration of attenuated throat discomfort [5, 8]: about four; time to relief after administration [5, 8]: five; cough and scratchy throat ([5]; ODT as needed for ten days): disappeared; effect on coughing fit (cough): the cough stopped within a few minutes; cooling sensations in the chest [6]: less effective; mutagenic activity, conclusion ([7]; TA1535, 3 to 5000 μg/plate, absence and presence of S9-mix): not mutagenic; bacterial background lawn ([7]; any of the concentrations tested (3 to 5000 μg/plate)): not reduced; precipitation on the plates ([7]; top dose of 5000 μg/plate, dissolved in DMSO): did not precipitate
CCCCOC(=O)CNC(=O)[C@@H]1C[C@H](C)CC[C@H]1C(C)C [Gly-O-nBu, [((1R,2S,5R)-2-isopropyl-5-methyl-cyclohexanecarbonyl)-amino]-acetic acid n-butyl ester]	38	35			0		
CCCOC(=O)CNC(=O)[C@@H]1C[C@H](C)CC[C@H]1C(C)C [Gly-O-nPr, [((1R,2S,5R)-2-isopropyl-5-methyl-cyclohexanecarbonyl)-amino]-acetic acid n-propyl ester]	42	54	Gly-O-iPr>>Gly-O-nPr>Gly-O-Et		0	not effective	
